Measured values: publication PMC3608651, “A Broad Profile of Co-Dominant Epitopes Shapes the Peripheral Mycobacterium tuberculosis Specific CD8+ T-Cell Immune Response in South African Patients with Active Tuberculosis” (PLoS ONE, 2013)
Like-named read-outs stand apart in the source and are kept apart here.

Key:
Type in all cases: binding
HLA-A*30:01 = HLA-A*30:01 (Homo sapiens, UniProt P04439, D140H/D185E/E176W/F33S/G80R/H175R/K168Q/R138E/R41S); details: duplicated experiments, positive binder >40%
HLA-B*58:01 = HLA-B*58:01 (Homo sapiens, UniProt P01889, A329T/C349S/D201E/D98Y/E176V/E187L/E204Q/E69T/G107R/I218V/I90N/K202T/L105A/L119I/N104I/N87E/Q89R/Q94S/R106L/R155S/R180L/R86G/S101N/S121R/S35A/S48A/T118I/V127L/V306I/V36M/Y140S/Y91M); details: duplicated experiments, positive binder >40%
HLA-C*07:01 = HLA-C*07:01 (Homo sapiens, UniProt P10321, K90N/S123Y); details: duplicated experiments, positive binder >40%
HLA-A*30:02 [1] = target: T1, HLA-A*30:02 (Homo sapiens, UniProt P04439, D101N/D140H/D185E/E176R/F33S/G80R/H175R/K168Q/Q94H/R138E/R41S/V100E); details: time points 0-8 h
HLA-A*02:01 = HLA-A*02:01 (Homo sapiens, UniProt P04439, D140Y/D185E/D98H/E176V/E277Q/G131W/G231S/I119V/I121R/I166T/I218V/L300P/L318F/N151K/N90K/P208A/P217A/Q86G/Q94H/R138H/R169H/T345S); details: plate-bound monomer 0.5 µg/ml, duplicated experiments, positive binder >40%
HLA-A*24:02 = HLA-A*24:02 (Homo sapiens, UniProt P04439, D101N/D140Y/D185E/E176V/E190D/F33S/G103R/G107R/I119L/I121M/I306V/K335N/L105A/L180Q/L300P/N151K/N90K/Q86E/Q94H/R106L/R138H/R89G/T104I/T345S/V100E/W191G/Y123F)
HLA-B*07:02 = HLA-B*07:02 (Homo sapiens, UniProt P01889); details: percent relative the binding of positive control peptide […]; duplicated experiments; positive binder >40%
HLA-A*30:02 [2] = target: T1, HLA-A*30:02
HLA-A*30:02 [3] = target: T1, HLA-A*30:02; details: duplicated experiments, positive binder >40%
HLA-A*68:01 = HLA-A*68:01 (Homo sapiens, UniProt P04439, A269V/D185E/E176V/E277Q/E87N/F33Y/G231S/I121M/I166T/I218V/L180W/L300P/L318F/N151K/P208A/P217A/Q86R/R169H/T345S); details: duplicated experiments, positive binder >40%
[4] = percent relative the binding of positive control peptide […]
[5] = percent relative the binding of positive control peptide […], duplicated experiments, positive binder >40%
[6] = percent relative the binding of positive control peptide KTKDIVNGL
[7] = percent relative the binding of positive control peptide IAMESIVIW
[8] = percent relative the binding of positive control peptide KYFDEHYEY
[9] = percent relative the binding of positive control peptide FLPSDFFPSV
[10] = percent relative the binding of positive control peptide RYLKDQQLL, duplicated experiments, positive binder >40%
[11] = peptide titrated 10−4 to 10−9 M
[12] = percent relative the binding of positive control peptide KIQNFRVYY
[13] = percent relative the binding of positive control peptide KTGGPIYKR

Substance	Bind A*30:01 (HLA-A*30:01; [4])	Bind B*58:01 (HLA-B*58:01; [4])	Bind C*07:01 (HLA-C*07:01; [4])	O-rate A*30:02 (t1/2) (HLA-A*30:02 [1])	Bind A*02:01 (HLA-A*02:01; [4])	Bind A*24:02 (HLA-A*24:02; [5])	Bind B*07:02 (HLA-B*07:02)	Aff A*30:02 (ED50) (HLA-A*30:02 [2])	Bind A*30:02 (HLA-A*30:02 [3]; [4])	Bind A*68:01 (HLA-A*68:01; [4])	Bind A*30:01 (HLA-A*30:01; [6])	Bind B*58:01 (HLA-B*58:01; [7])	Bind C*07:01 (HLA-C*07:01; [8])	Bind A*02:01 (HLA-A*02:01; [9])	Bind A*24:02 (HLA-A*24:02; [10])	Aff A*30:02 (ED50) (HLA-A*30:02 [2]; [11])	Bind A*30:02 (HLA-A*30:02 [3]; [12])	Bind A*68:01 (HLA-A*68:01; [13])	Bind A*24:02 (HLA-A*24:02)
GQSSFYSDW	0%	62%	0%	3.3 h	27%	76%	0%	2e-08 M	71%	0%									
NLKFQDAYN	0%	0%	7%	0.4 h	8%	0%	0%	1e-05 M	123%	9%									
QQKWDATAT [Rv3875_55–63]				1.7 h			9%				29%	8%	4%	0%	0%	9e-08 M	60%	9%	
RAQDDYNGW	11%	41%	2%	1.2 h	0%	65%	0%	5e-07 M	119%	2%									
KAADMW GPS	1%	21%	34%	0.8 h	33%	4%	18%	7E -09 M	103%	17%									
TMLGHAGDM [Rv0288_10–18m1]				0.6 h	10%	4%		5e-06 M	99%										
AYHPQQFIY	6%	35%	43%	1.9 h	13%	60%	0%	1E -07 M	111%	5%									
PAVYLLDGL	0%	0%	17%	1 h	9%	38%	63%	9E -08 M	120%	2%									
KFQDAYNAA	0%	0%	0%	0.7 h	19%	0%	0%	8e-06 M	113%	0%									
SNLKFQDAY	0%	14%	52%	1.6 h	11%	23%	0%	2e-07 M	124%	18%									
DHAGDMAGY [Rv0288_13–21m1]				0.3 h				1e-08 M	141%										
LVRAYHSMS [Rv0288_65–73m1]	7%			0.9 h				1e-08 M	30%										
LVANNT RLW	2%	50%	26%	0.5 h	21%	88%	50%	5e-07 M	68%	38%									
IYAGSLSAL	0%	16%	0%	0.5 h	44%	107%	83%	4E -06 M	116%	4%									
RSSNLKFQD	0%	14%	64%	1.6 h	11%	26%	3%	1E -05 M	104%	11%									
AAAWGGSGS [Rv3875_40-48]				1.1 h			4%				29%	8%	29%	8%	0%	5e-09 M	129%	15%	
AYHSMSSTH [Rv0288_68–76m1]				0.5 h				2e-07 M	70%										
AAWGGSGSE [Rv3875_41–49]				1.5 h			4%				18%	9%	29%	29%	2%	3e-07 M	167%	29%	
TATELNNAL [Rv3875_61–69]				2.6 h			12%				4%	0%	5%	11%	15%	9e-09 M	106%	13%	
RTISEAGQA [Rv3875_74–82]				2 h			11%				19%	34%	8%	18%	0%	3e-08 M	98%	4%	
LKFQDAYNA	0%	9%	53%		17%	0%	0%		91%	0%									
QQWNFAGIE [Rv3875_4–12]							1%				0%	0%	11%	45%	0%		39%	15%	
AGGYKAADM	0%	0%	0%		0%	0%	0%		85%	0%									
YYQSGLSIV	29%	0%	25%		98%		0%		37%	5%									130
NAVFNFPPN	0%	28%	2%		24%	14%	5%		70%	27%									
